Data reported in US20150246946A1, “PEPTIDES AND METHODS FOR TREATING CANCER” (AGENCY FOR SCIENCE, TECHNOLOGY AND RESEARCH, priority 2012, published 2015).
Bridges are numbered along the chain shown (N, C = ends). [ ]: non-standard residue; d: D form. R8 = C=CCCCCCC[C@@](C)(N)C(=O)O; S5 = C=CCCC[C@](C)(N)C(=O)O; FAM = carboxyfluorescein

T1: interaction of p53 with Mdm4 in living BHK cells (Homo sapiens, UniProt O15151)
T1 construct: Mdm4 (1-129) with RFP; host or cells: transgenic BHK cells with lac operator repeats
T1 sequence (O15151 1-129): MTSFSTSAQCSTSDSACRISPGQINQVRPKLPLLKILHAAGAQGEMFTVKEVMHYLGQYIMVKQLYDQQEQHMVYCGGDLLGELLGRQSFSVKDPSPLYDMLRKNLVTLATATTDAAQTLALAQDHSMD

T2: Mdm4 (1-125) (Homo sapiens, UniProt O15151)
T2 construct: Mdm4 (1-125) were ligated into the GST fusion expression vector pGEX-6P-1; GST (N, cleaved yes); made in house; host or cells: E. coli BL21 DE3
T2 sequence (O15151 1-125): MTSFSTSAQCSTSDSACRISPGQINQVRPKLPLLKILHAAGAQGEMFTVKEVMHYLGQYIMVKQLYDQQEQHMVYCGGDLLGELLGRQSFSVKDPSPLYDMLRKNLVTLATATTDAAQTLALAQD

T3: Mdm4 (1-125) (human, UniProt O15151 1-125)
T3 construct: range 1-125; also called MDMX; Hdm4
T3 sequence (looked up): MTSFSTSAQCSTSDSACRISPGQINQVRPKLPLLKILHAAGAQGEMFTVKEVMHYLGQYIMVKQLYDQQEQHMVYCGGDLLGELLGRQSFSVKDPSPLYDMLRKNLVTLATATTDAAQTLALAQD


Legend:
HCT-116 p53+/+ cells [1] = test: Caspase-Glo 3/7 assay, HCT-116 p53+/+; type: cell-based; details: 24 hours
From the text: (§1) Data was normalized to vehicle-treated controls.

HCT-116 p53+/+ cells [2] = test: HCT-116 Western blot analysis; type: cell-based; details: 6 hours, with or without fetal calf serum, FIG. 2d
Procedure: Cells were treated with various compounds/vehicle controls at the time points and concentrations indicated also in acoy's media with 10% FBS. Cells were rinsed with PBS and then harvested in 200 μl of 1× NuPAGE LDS sample buffer supplied by Invitrogen (NP0008). Samples were then sonicated, heated to 90° C. for 5 mins, sonicated twice for 10 s and centrifuged at 13, 000 rpm for 5 minutes. Protein concentrations were measured by BCA assay (Pierce). Western blots were then performed using antibodies against actin (AC-15, Sigma) as a loading control, p21 (118 mouse monoclonal), Mdm2 (4B2 mouse monoclonal) and p53 (DO-1 mouse monoclonal).

HCT116 p53+/+ cells = test: cell cycle analysis (propidium iodide flow cytometry); type: cell-based; details: 24 hours; for cell cycle distribution at high concentrations: high concentration (FIG. 5); for cell cycle distribution at low concentrations: low concentration (FIG. 4c)
Procedure: Three hundred fifty thousand cells were then seeded per well in 6-well plates containing incubated overnight. […] A 1% DMSO vehicle control treatment was also carried out. Cells were washed with PBS and then detached from the plate surface by trypsinisation. […] Cells were spun down and resuspended with PI-staining solution containing RNase A. Cells were analyzed using an LSR II (Becton Dickinson).

[3] = biological target: T1, interaction of p53 with Mdm4 in living BHK cells; test: F2H co-localization assay p53:Mdm4; type: cell-based; details: 0 to 50 μM
HCT-116 p53−/− cells [4] = test: Caspase-Glo 3/7 assay, HCT-116 p53−/−; type: cell-based; details: 24 hours
From the text: as §1

p53 null thymocytes = test: cell viability in mouse thymocytes, p53 null; type: cell-based, mice; details: high doses, 24 hours, annexin V/PI
SJSA-1 cell line = test: caspase 3/7 activity in SJSA-1 cell line; details: SJSA-1 cells, titration
[5] = biological target: T4, interaction of p53 with Mdm2 in living BHK cells (Homo sapiens, UniProt Q00987); test: F2H co-localization assay p53:Mdm2; type: cell-based; details: 0 to 50 μM
T4 construct: the prey is a fusion of either Mdm2 (7-134) or Mdm4 (1-129) with RFP; host or cells: transgenic BHK cells with lac operator repeats

Mdm4 (1-125) [6] = biological target: T2, Mdm4 (1-125); test: competitive fluorescence polarization/anisotropy, apparent Kd against Mdm4; type: binding
Procedure: (§2) The cells expressing the GST fusion constructs were grown in LB medium at 37° C. to an OD600 of ˜0.6 and induction was started with 1 mM IPTG and carried out overnight at room temperature. Cells were harvested by centrifugation and the cell pellets were re-suspended in 50 mM Tris pH 8.0, 10% sucrose and were then sonicated. The sonicated sample was centrifuged for 60 mins at 17,000 g at 4° C. […] The column was then further washed by 6 volumes of wash buffer. Mdm2 and Mdm4 were then purified from the column by cleavage with Precission (GE Lifesciences) protease. 10 units of precission protease, in one column volume of PBS with 1 mM DTT buffer, were injected onto the column. The cleavage reaction was allowed to proceed overnight at 4° C. The cleaved protein was then eluted of the column with wash buffer. Protein fractions were analyzed with SDS page gel and concentrated using a Centricon (3.5 kDa MWCO) concentrator, Millipore. Mdm2 and Mdm4 protein samples were then dialyzed into a buffer solution containing 20 mM Bis-Tris, pH 6.5, 0.05M NaCl with 1 mM DTT and loaded onto a monoS column pre-equilibrated in buffer A (20 mM Bis-Tris, pH 6.5, 1 mM DTT). The column was then washed in 6 column volumes of buffer A and bound protein was eluted with a linear gradient of 1M NaCL over 25 column volumes. Protein fractions were analyzed with SDS page gel and concentrated using a Centricon (3.5 kDa MWCO) concentrator from Millipore.
(§3) Apparent Kd values were determined for a variety of molecules via competitive fluorescence anisotropy experiments. […] The competing molecules were then titrated against complex of the FAM labelled peptide and protein. Apparent Kd values were determined by fitting the experimental data to the equations shown below:
(§4) [L]st and [L]t denote labelled ligand and total unlabelled ligand input concentrations, respectively. Kd2 is the dissociation constant of the interaction between the unlabelled ligand and the protein. In all competitive types of experiments, it is assumed that [P]t>[L]st, otherwise considerable amounts of free labelled ligand would always be present and would interfere with measurements. […] The FAM-labelled peptide were dissolved in DMSO at 1 mM and diluted into experimental buffer. Readings were carried out with a Envision Multilabel Reader (PerkinElmer). […] All titrations were carried out in triplicate. Curve-fitting was carried out using Prism 4.0 (GraphPad).

Mdm2 (1-125) [7] = biological target: T5, Mdm2 (1-125) (Homo sapiens, UniProt Q00987); test: competitive fluorescence polarization/anisotropy, apparent Kd against Mdm2; type: binding
T5 construct: Mdm2 (1-125) and Mdm4 (1-125) were ligated into the GST fusion expression vector pGEX-6P-1; GST (N, cleaved yes); made in house; host or cells: E. coli BL21 DE3
Procedure: as §2, §3, §4

HCT-116 p53−/− cells [8] = test: cell viability (CellTiter-Glo), HCT-116 p53−/−; type: cell-based; details: 24 hours
From the text: as §1

[9] = tested on: p53 responsive LacZ reporter gene in T22 cell line; test: T22 p53 β-galactosidase based reporter assay; type: cell-based, murine; details: for p53 transcriptional activity in T22 p53 reporter assay: 18 hours, DMEM with 10% FBS
Procedure: T22 cells, which were stably transfected with a p53 responsive […] reporter, were seeded into 96-well plate at a cell density of 8000 cells per well. […] Measurements were carried out using a Safire II multiplate reader (TECAN). Experiments were carried out independently twice.

HCT-116 p53+/+ cells [10] = test: cell viability (CellTiter-Glo), HCT-116 p53+/+; type: cell-based; details: 24 hours
From the text: as §1

[11] = tested on: thymocytes from p53 wild-type mice; test: cell viability in mouse thymocytes, p53 wild-type; type: cell-based; details: p53 wild-type vs p53 deficient mice, 24 hours, annexin V/PI
Procedure: Thymocytes were isolated from wild-type and p53^+/−mice (age 4-9 weeks) and kept in a PBS/FCS (2%) solution (ref). Cells were plated at a density of 1×10^6 per well in 24-well plates in medium [DMEM/Hepes (25 mM, pH 7.2), 5% FCS, penicillin/streptomycin, glutamine] and incubated at 37° C. with 2% C02. […] Cell were then analysed for viability using this procedure, cells were washed with cold PBS, and stained with FITC-labeled annexin V antibody (PharMingen) and PI (Sigma). The relative amounts of apoptotic cells were determined by binding of annexin V and subsequent fluorescence-activated cell sorter analysis. All values were normalized to the number of cells remaining viable in vehicle (1% DMSO) treated cultures derived from the same animal stained simultaneously. Data are representatives of n=4 independent experiments.

Mdm4 (1-125) [12] = biological target: T3, Mdm4 (1-125); test: apparent Kd, competitive fluorescence polarization; displacement of FAM-…-NH2 from Mdm4 (1-125)
Mdm2 (1-125) [13] = biological target: T6, Mdm2 (1-125) (human, UniProt Q00987 1-125); test: competitive fluorescence polarization
T6 construct: range 1-125; also called Hdm2

Mdm4 (1-125) [14] = biological target: T3, Mdm4 (1-125); test: competitive fluorescence polarization
Mdm2 (1-125) [15] = biological target: T6, Mdm2 (1-125); test: apparent Kd, competitive fluorescence polarization; displacement of FAM-…-NH2 from Mdm2 (1-125)
Mdm4 (1-125) [16] = biological target: T3, Mdm4 (1-125); test: direct fluorescence anisotropy titration of Mdm4 (1-125) against 50 nM labelled peptide, 1:1 model

T4 sequence (Q00987 7-134): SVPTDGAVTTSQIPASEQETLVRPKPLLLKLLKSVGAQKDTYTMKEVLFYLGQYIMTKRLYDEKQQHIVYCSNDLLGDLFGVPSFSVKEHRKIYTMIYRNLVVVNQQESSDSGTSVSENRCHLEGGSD
T5 sequence (Q00987 1-125): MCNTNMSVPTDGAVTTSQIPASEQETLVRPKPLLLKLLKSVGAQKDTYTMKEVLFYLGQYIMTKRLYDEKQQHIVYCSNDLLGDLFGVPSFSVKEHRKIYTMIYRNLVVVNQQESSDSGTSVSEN
T6 sequence (Q00987 1-125 limits assumed): as the sequence (Q00987 1-125) above

| disruption of p53 interaction with Mdm2 (F2H) [5] | Molecule | caspase 3/7 activity (HCT-116 p53+/+ cells [1]) | effect of serum on activity (HCT-116 p53+/+ cells [2]) | cell cycle distribution at high concentrations (HCT116 p53+/+ cells) | cell cycle distribution at low concentrations (HCT116 p53+/+ cells) | caspase 3/7 activity (HCT-116 p53−/− cells [4]) | apoptosis in p53 null thymocytes (p53 null thymocytes) | induction of caspase 3/7 activity (SJSA-1 cell line) | cell viability (HCT-116 p53−/− cells [8]) | p53 transcriptional activity in T22 p53 reporter assay [9] | cell viability (HCT-116 p53+/+ cells [10]) | cell death in thymocytes [11] | further results |
| --- | --- | --- | --- | --- | --- | --- | --- | --- | --- | --- | --- | --- | --- |
| dissociate Mdm2 from p53 | CC(=O)N[C@H](C(=O)N[C@@H](CO)C(=O)N[C@@H](Cc1ccccc1)C(=O)N[C@]1(C)CCCCCCC=CCCC[C@@](C)(C(N)=O)NC(=O)[C@H](CC(C)C)NC(=O)[C@H](CC(C)C)NC(=O)[C@H](C)NC(=O)[C@H](Cc2c[nH]c3ccccc23)NC(=O)[C@H](Cc2ccc(O)cc2)NC(=O)[C@H](CCC(=O)O)NC1=O)[C@@H](C)O [sMTide-02, Ac-^1TSFXEYWALLX^11-NH2] | negligible caspase 3/7 activity | significantly improved potency in the absence of serum | G2 arrest | G2 arrest | negligible caspase 3/7 activity | did not | induced caspase 3/7 activity at substantially higher concentrations than nutlin | no significant decrease in the viability | strongest p53 transcriptional response ever seen in this assay | no significant decrease in the viability | induced cell death in a p53-dependent manner | disruption of p53 interaction with Mdm4 (F2H) [3]: greater potency against Mdm4; Kd (Mdm4 (1-125) [6]): 45.7 ± 7.65 nM; increase in Kd against Mdm4 in comparison to unstapled counterpart (Mdm4 (1-125) [6]; stapled vs unstapled peptide): 2 fold; increase in Kd against Mdm2 in comparison to unstapled counterpart (Mdm2 (1-125) [7]; stapled vs unstapled peptide): negligible increase; effect of PGP inhibitor PSC-883 on p53 response in the reporter assay ([9]; with 20 μM PSC-883 vs without): significantly improved the sensitivity of the p53 response |
| dissociate Mdm2 from p53 | CC(=O)N[C@H](C(=O)N[C@@H](CO)C(=O)N[C@@H](Cc1ccccc1)C(=O)N[C@]1(C)CCCCCCC=CCCC[C@@](C)(C(N)=O)NC(=O)[C@H](CC(C)C)NC(=O)[C@H](CC(C)C)NC(=O)[C@H](C)NC(=O)[C@H](Cc2c[nH]c3cc(Cl)ccc23)NC(=O)[C@H](Cc2ccc(O)cc2)NC(=O)[C@H](CCC(=O)O)NC1=O)[C@@H](C)O [sMTide-02A, Ac-^1TSFXEY(L-6-Cl)WALLX^11-NH2] | negligible caspase 3/7 activity | significantly improved potency in the absence of serum | G2 arrest | G2 arrest | negligible caspase 3/7 activity | to a certain extent | induced caspase 3/7 activity at substantially higher concentrations than nutlin | no significant decrease in the viability | much higher fold induction of p53 transcriptional activity than the unmodified sMTide-02 | no significant decrease in the viability | induced cell death in a p53-dependent manner | Mdm4 Kd (Mdm4 (1-125) [6]; apparent Kd, competitive fluorescence polarization, Mdm4 75 nM, FAM peptide 50 nM): significantly attenuated; preference between Mdm2 and Mdm4 in binding (Mdm2 (1-125) [7]; comparison of apparent Kds): preference for Mdm2 over Mdm4 |
| – | Ac-TSF[R8]EYWNLL[S5]-NH2 (staple 4-11; SMILES CC(=O)N[C@H](C(=O)N[C@@H](CO)C(=O)N[C@@H](Cc1ccccc1)C(=O)N[C@]1(C)CCCCCCC=CCCC[C@@](C)(C(N)=O)NC(=O)[C@H](CC(C)C)NC(=O)[C@H](CC(C)C)NC(=O)[C@H](CC(N)=O)NC(=O)[C@H](Cc2c[nH]c3ccccc23)NC(=O)[C@H](Cc2ccc(O)cc2)NC(=O)[C@H](CCC(=O)O)NC1=O)[C@@H](C)O, Stapled derivative of MTide-01; also called Ac-TSFXEYWNLLX-NH2) [sMTide-01] | – | – | – | – | – | – | – | – | – | – | – | Kd (Mdm4 (1-125) [12]): 118 nM; fold increase in Kd against its unstapled counterpart (MTide-01) (Mdm2 (1-125) [13]): ~2 fold; fold increase in Kd against its unstapled counterpart (MTide-01) (Mdm4 (1-125) [14]): ~4 fold; Kd (Mdm2 (1-125) [15]): 87 nM |
| – | {FAM}-RFMDYWEGL-NH2 (Labelled probe of the fluorescence anisotropy assays; also called FAM labeled probe) [carboxyfluorescein (FAM) labelled 12-1 peptide (FAM-RFMDYWEGL-NH2)] | – | – | – | – | – | – | – | – | – | – | – | Kd (Mdm4 (1-125) [16]): 4.2 nM |
